The results in this text go back to US12534457B2, “Heteroaryl derivative compounds, and uses thereof” (Voronoi Inc., priority 2021, dated 2026).

This assay concerns Ba/F3 cells expressing EGFR Del19/C797S (EGFR DC). Kind of assay: Proliferation inhibitory activity, Ba/F3 cells expressing EGFR Del19/C797S (CellTiter-Glo). It counts as cell-based. As for the experimental part: The following experiments were performed to evaluate the inhibitory activity of the compounds according to the present disclosure on Ba/F3 proliferation expressing EGFR C797S, L861Q, G719A, S768I, L718Q, and/or G724S mutations.
For Ba/F3 cells, RPMI-1640 containing 10% FBS and 5 ng/ml IL-3 (R&D Systems) was used. Transduced Ba/F3 cells were cultured after adding 1 μg/ml puromycin (Invitrogen) to the same medium.
At 24 hours before treatment with the compounds, 3000 to 5000 cells were aliquoted into each well of a white clear bottom 96 well plate (Corning). The compounds were diluted in dimethyl sulfoxide (3 times dilution, 12 concentrations in total), and injected in an amount of 1 μl so that the final concentration was 0.2 nM to 5 uM. For measurement of living cells, after 72 hours of compound treatment, the cells were stored at room temperature for 10 min using CellTiter-Glo luminescentcell-viability reagent (Promega), and then luminescence intensity was measured using a reader (SynergyNeo, Biotek). Each test was repeated three times. Result values were calculated as the cell growth rate (%) compared to the control. The graphs were created using GraphPad Prism version 8.3.0 program and the GI50 values were calculated.
In general terms: Cellular ATP, detected with luciferase, serves as a proxy for viable cell number.

Setting [1] is: Mus musculus, BaF3, 72 hours of compound treatment.

The structures appear in SMILES notation.

The term GI50 denotes the concentration that inhibits growth by half. Regarding `CN1CCN(c2ccc(Nc3cc(N4OCC[C@H]4c4ccccc4)ncn3)cc2)CC1` [Example 2, (S)—N-(4-(4-methylpiperazin-1-yl)phenyl)-6-(3-phenylisoxazolidin-2-yl)pyrimidin-4-amine], under setting [1], the GI50 is 50 to 500 nM.
The same measure, in the same setting: under `CN1CCN(c2ccc(Nc3cc(N4OCC[C@@H]4Cc4ccccc4)ncn3)cc2)CC1` [Example 3, (S)-6-(3-benzylisoxazolidin-2-yl)-N-(4-(4-methylpiperazin-1-yl)phenyl)pyrimidin-4-amine] stands < 50 nM; under `CN1CCN(Cc2cc(Nc3cc(N4OCC[C@@H]4c4cc(F)cc(F)c4)ncn3)cc(C(C)(C)C#N)c2)CC1` [Example 14, (R)-2-(3-((6-(3-(3,5-difluorophenyl)isoxazolidin-2-yl)pyrimidin-4-yl)amino)-5-((4-methylpiperazin-1-yl)methyl)phenyl)-2-methylpropanenitrile], 50 to 500 nM.
The same measure, in the same setting: under `CN1CCN(C2CCN(c3ccc(Nc4cc(N5OCC[C@@H]5c5cc(F)cc(F)c5)ncn4)cc3)CC2)CC1` [Example 17, (R)-6-(3-(3,5-difluorophenyl)isoxazolidin-2-yl)-N-(4-(4-(4-methylpiperazin-1-yl)piperidin-1-yl)phenyl)pyrimidin-4-amine] stands 50 to 500 nM; under `CN1CCN(c2ccc(Nc3cc(N4OCC[C@@H]4c4cc(F)cc(F)c4)ncn3)cc2)CC1` [Example 18, (R)-6-(3-(3,5-difluorophenyl)isoxazolidin-2-yl)-N-(4-(4-methylpiperazin-1-yl)phenyl)pyrimidin-4-amine], 50 to 500 nM.
On the same count and under the same terms, under `CN(C)CCN(C)c1ccc(Nc2cc(N3OCC[C@@H]3c3cc(F)cc(F)c3)ncn2)cc1` [Example 19, (R)—N^1-(6-(3-(3,5-difluorophenyl)isoxazolidin-2-yl)pyrimidin-4-yl)-N^4-(2-(dimethylamino)ethyl)-N^4-methylbenzene-1,4-diamine] stands 50 to 500 nM; under `COc1cc(N2CCC(N3CCN(C)CC3)CC2)c(C)cc1Nc1cc(N2OCC[C@@H]2c2cc(F)cc(F)c2)ncn1` [Example 20, (R)-6-(3-(3,5-difluorophenyl)isoxazolidin-2-yl)-N-(2-methoxy-5-methyl-4-(4-(4-methylpiperazin-1-yl)piperidin-1-yl)phenyl)pyrimidin-4-amine], < 50 nM.
For `COc1cc(N2CCC(N3CCN(C)CC3)CC2)ccc1Nc1cc(N2OCC[C@@H]2c2cc(F)cc(F)c2)ncn1` [Example 21, (R)-6-(3-(3,5-difluorophenyl)isoxazolidin-2-yl)-N-(2-methoxy-4-(4-(4-methylpiperazin-1-yl)piperidin-1-yl)phenyl)pyrimidin-4-amine], the GI50 under setting [1] was < 50 nM.
Same read-out and setting: under `COc1cc(N2CCC(N(C)C)CC2)ccc1Nc1cc(N2OCC[C@@H]2c2cc(F)cc(F)c2)ncn1` [Example 22, (R)-6-(3-(3,5-difluorophenyl)isoxazolidin-2-yl)-N-(4-(4-(dimethylamino)piperidin-1-yl)-2-methoxyphenyl)pyrimidin-4-amine] stands < 50 nM; under `CN1CCN(C2CCN(c3ccc(Nc4cc(N5OCC[C@@H]5c5cc(F)cc(F)c5)ncn4)cc3C(F)(F)F)CC2)CC1` [Example 23, (R)-6-(3-(3,5-difluorophenyl)isoxazolidin-2-yl)-N-(4-(4-(4-methylpiperazin-1-yl)piperidin-1-yl)-3-(trifluoromethyl)phenyl)pyrimidin-4-amine], 50 to 500 nM.
As to `CN1CCN(C2CCN(c3ccc(Nc4cc(N5OCC[C@@H]5c5cc(F)cc(F)c5)ncn4)cc3S(C)(=O)=O)CC2)CC1` [Example 24, (R)-6-(3-(3,5-difluorophenyl)isoxazolidin-2-yl)-N-(4-(4-(4-methylpiperazin-1-yl)piperidin-1-yl)-3-(methylsulfonyl)phenyl)pyrimidin-4-amine], the GI50 under setting [1] is 50 to 500 nM.
Still for that read-out and setting: under `CCc1cc(Nc2cc(N3OCC[C@@H]3c3cc(F)cc(F)c3)ncn2)c(OC)cc1N1CCC(N2CCN(C)CC2)CC1` [Example 25, (R)-6-(3-(3,5-difluorophenyl)isoxazolidin-2-yl)-N-(5-ethyl-2-methoxy-4-(4-(4-methylpiperazin-1-yl)piperidin-1-yl)phenyl)pyrimidin-4-amine] stands < 50 nM.
Turning to `COc1cc(Nc2cc(N3OCC[C@@H]3c3cc(F)cc(F)c3)ncn2)ccc1N1CCC(N2CCN(C)CC2)CC1` [Example 26], under “72 hours of compound treatment”, the GI50 is < 50 nM.
As to `COc1cc(N2CCC(N3CCN(C)CC3)CC2)ccc1Nc1cc(N2OCC[C@@H]2c2cccc(C(F)(F)F)c2)ncn1` [Example 27, (R)—N-(2-methoxy-4-(4-(4-methylpiperazin-1-yl)piperidin-1-yl)phenyl)-6-(3-(3-(trifluoromethyl)phenyl)isoxazolidin-2-yl)pyrimidin-4-amine], the GI50 under setting [1] lay in the range of 50 to 500 nM.
For the compound `COc1cc(N2CCC(N3CCN(C)CC3)CC2)ccc1Nc1cc(N2OCC[C@@H]2c2cccc(C(F)(F)F)c2F)ncn1` [Example 28, (R)-6-(3-(2-fluoro-3-(trifluoromethyl)phenyl)isoxazolidin-2-yl)-N-(2-methoxy-4-(4-(4-methylpiperazin-1-yl)piperidin-1-yl)phenyl)pyrimidin-4-amine], the GI50 under setting [1] was in the range of 50 to 500 nM.
As for `COc1cc(N2CCC(N3CCN(C)CC3)CC2)ccc1Nc1cc(N2OCC[C@@H]2c2cccc(F)c2)ncn1` [Example 29, (R)-6-(3-(3-fluorophenyl)isoxazolidin-2-yl)-N-(2-methoxy-4-(4-(4-methylpiperazin-1-yl)piperidin-1-yl)phenyl)pyrimidin-4-amine], under setting [1], the GI50 is < 50 nM.
Same read-out and setting: the result for `COc1cc(N2CCC(N3CCN(C)CC3)CC2)ccc1Nc1cc(N2OCC[C@@H]2c2cc(F)ccc2F)ncn1` [Example 30, (R)-6-(3-(2,5-difluorophenyl)isoxazolidin-2-yl)-N-(2-methoxy-4-(4-(4-methylpiperazin-1-yl)piperidin-1-yl)phenyl)pyrimidin-4-amine] reads < 50 nM.
Still for that read-out and setting: under `COc1cc(N2CCC(N3CCN(C)CC3)CC2)ccc1Nc1cc(N2OCC[C@@H]2c2ccc(F)c(Cl)c2)ncn1` [Example 31, (R)-6-(3-(3-chloro-4-fluorophenyl)isoxazolidin-2-yl)-N-(2-methoxy-4-(4-(4-methylpiperazin-1-yl)piperidin-1-yl)phenyl)pyrimidin-4-amine] stands < 50 nM; under `COc1cc(N2CCC(N3CCN(C)CC3)CC2)ccc1Nc1cc(N2OCC[C@@H]2c2cccc(F)c2F)ncn1` [Example 32, (R)-6-(3-(2,3-difluorophenyl)isoxazolidin-2-yl)-N-(2-methoxy-4-(4-(4-methylpiperazin-1-yl)piperidin-1-yl)phenyl)pyrimidin-4-amine], < 50 nM; under `COc1cc(N2CCC(N3CCN(C)CC3)CC2)ccc1Nc1cc(N2OCC[C@@H]2c2ccc(F)cc2)ncn1` [Example 33, (R)-6-(3-(4-fluorophenyl)isoxazolidin-2-yl)-N-(2-methoxy-4-(4-(4-methylpiperazin-1-yl)piperidin-1-yl)phenyl)pyrimidin-4-amine], < 50 nM.
The same measure, in the same setting: under `COc1cc(N2CCC(N3CCN(C)CC3)CC2)ccc1Nc1cc(N2OCC[C@@H]2c2cccs2)ncn1` [Example 35, (R)—N-(2-methoxy-4-(4-(4-methylpiperazin-1-yl)piperidin-1-yl)phenyl)-6-(3-(thiophen-2-yl)isoxazolidin-2-yl)pyrimidin-4-amine] stands < 50 nM.
Take `COc1cc(N2CCC(N3CCN(C)CC3)CC2)ccc1Nc1cc(N2OCC[C@@H]2c2cccc3ccccc23)ncn1` [Example 36, (R)—N-(2-methoxy-4-(4-(4-methylpiperazin-1-yl)piperidin-1-yl)phenyl)-6-(3-(naphthalen-1-yl)isoxazolidin-2-yl)pyrimidin-4-amine]: the GI50 under setting [1] is 50 to 500 nM.
`COc1cc(N2CCC(N3CCN(C)CC3)CC2)ccc1Nc1cc(N2OCC[C@@H]2c2ccc(C)nc2)ncn1` [Example 38, (R)—N-(2-methoxy-4-(4-(4-methylpiperazin-1-yl)piperidin-1-yl)phenyl)-6-(3-(6-methylpyridin-3-yl)isoxazolidin-2-yl)pyrimidin-4-amine]: under setting [1], the GI50 lay within 50 to 500 nM.
In the case of `COc1cccc([C@H]2CCON2c2cc(Nc3ccc(N4CCC(N5CCN(C)CC5)CC4)cc3OC)ncn2)c1` [Example 41, (R)—N-(2-methoxy-4-(4-(4-methylpiperazin-1-yl)piperidin-1-yl)phenyl)-6-(3-(3-methoxyphenyl)isoxazolidin-2-yl)pyrimidin-4-amine], the 50% growth inhibitory concentration (GI50) under setting [1] fell in the range of 50 to 500 nM.
On the same count and under the same terms, the result for `CN1CCC(N2CCN3c4ccc(Nc5cc(N6OCC[C@@H]6c6ccccc6)ncn5)cc4OC[C@H]3C2)CC1` [Example 48, (R)-3-(1-methylpiperidin-4-yl)-N-(6-((R)-3-phenylisoxazolidin-2-yl)pyrimidin-4-yl)-1,2,3,4,4a,5-hexahydrobenzo[b]pyrazino[1,2-d][1,4]oxazin-8-amine] reads < 50 nM; that for `COc1cc2c(cc1Nc1cc(N3OCC[C@@H]3c3ccccc3)ncn1)OC[C@H]1C[C@@H](N3CCN(C4CC4)CC3)CCN21` [Example 49, (6aR,8S)-8-(4-cyclopropylpiperazin-1-yl)-2-methoxy-N-(6-((R)-3-phenylisoxazolidin-2-yl)pyrimidin-4-yl)-6,6a,7,8,9,10-hexahydrobenzo[b]pyrido[1,2-d] [1,4]oxazin-3-amine], < 50 nM; that for `Cc1cc(N2CCC(N3CCN(C)CC3)CC2)ccc1Nc1cc(N2OCC[C@@H]2c2ccccc2)ncn1` [Example 52, (R)—N-(2-methyl-4-(4-(4-methylpiperazin-1-yl)piperidin-1-yl)phenyl)-6-(3-phenylisoxazolidin-2-yl)pyrimidin-4-amine], < 50 nM.
